Test results reported in ChEMBL document CHEMBL1201862, “PubChem BioAssay data set” (2004).
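A five-concentration, 48-hour dose response in 96-well plates underlies each endpoint, interpolated linearly between surrounding concentrations. GI50 = concentration required for 50% inhibition of growth.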 Active and inactive are the calls of the source. Cut-off read from the data, not from the text of the source: active = GI50 up to about 1.1 µM and inactive = higher.

Assays:
Assay in all cases: NCI tumour cell line growth inhibition, 48 h
MCF7 = tested on: MCF7
UACC-257 = tested on: UACC-257
RPMI-8226 = tested on: RPMI-8226
Malme-3M = tested on: Malme-3M
PC-3 = tested on: PC-3
SF-295 = tested on: SF-295
COLO 205 = tested on: COLO 205
SK-OV-3 = tested on: SK-OV-3
SR = tested on: SR
ACHN = tested on: ACHN
HCT-116 = tested on: HCT-116
SK-MEL-5 = tested on: SK-MEL-5
LOX IMVI = tested on: LOX IMVI
TK-10 = tested on: TK-10
SNB-75 = tested on: SNB-75
CCRF-CEM = tested on: CCRF-CEM
UO-31 = tested on: UO-31
RXF 393 = tested on: RXF 393
K562 = tested on: K562
Hs-578T = tested on: Hs-578T

O=C(NNC(=S)NC1CCCCC1)c1csc(NC(=S)NC2CCCCC2)n1
GI50 (MCF7): 7.55 µM (inactive) | GI50 (UACC-257): 3.24 µM (inactive) | GI50 (RPMI-8226): 9.86 µM (inactive) | GI50 (Malme-3M): 11.2 µM (inactive) | GI50 (PC-3): 10.9 µM (inactive) | GI50 (SF-295): 5.87 µM (inactive) | GI50 (COLO 205): 3.22 µM (inactive) | GI50 (SK-OV-3): 11.7 µM (inactive) | GI50 (SR): 5.4 µM (inactive) | GI50 (ACHN): 3.54 µM (inactive) | GI50 (HCT-116): 4.27 µM (inactive) | GI50 (SK-MEL-5): 2.01 µM (inactive) | GI50 (LOX IMVI): 4.9 µM (inactive) | GI50 (TK-10): 6.38 µM (inactive) | GI50 (SNB-75): > 10 µM (inactive) | GI50 (CCRF-CEM): 5.73 µM (inactive) | GI50 (UO-31): 0.948 µM (active)

COc1cc2c(cc1OC)C(=O)N(c1ccc(O)cc1)C2
GI50 (UACC-257): > 100 µM (inactive) | GI50 (RPMI-8226): > 100 µM (inactive) | GI50 (RXF 393): > 100 µM (inactive) | GI50 (Malme-3M): > 100 µM (inactive) | GI50 (K562): > 100 µM (inactive) | GI50 (PC-3): > 100 µM (inactive) | GI50 (SF-295): > 100 µM (inactive) | GI50 (COLO 205): > 100 µM (inactive) | GI50 (SK-OV-3): > 100 µM (inactive) | GI50 (SR): > 100 µM (inactive) | GI50 (ACHN): > 100 µM (inactive) | GI50 (HCT-116): > 100 µM (inactive) | GI50 (SK-MEL-5): > 100 µM (inactive) | GI50 (LOX IMVI): > 100 µM (inactive) | GI50 (TK-10): > 100 µM (inactive) | GI50 (CCRF-CEM): > 100 µM (inactive) | GI50 (Hs-578T): > 100 µM (inactive)

COc1cccc(-n2c(N)c(-c3nc4cc(C(F)(F)F)ccc4s3)c3ccc([N+](=O)[O-])cc3c2=O)c1
GI50 (MCF7): > 100 µM (inactive) | GI50 (UACC-257): > 100 µM (inactive) | GI50 (RPMI-8226): > 100 µM (inactive) | GI50 (Malme-3M): > 100 µM (inactive) | GI50 (K562): > 100 µM (inactive) | GI50 (PC-3): > 100 µM (inactive) | GI50 (SF-295): > 100 µM (inactive) | GI50 (COLO 205): > 100 µM (inactive) | GI50 (SK-OV-3): > 100 µM (inactive) | GI50 (ACHN): > 100 µM (inactive) | GI50 (HCT-116): > 100 µM (inactive) | GI50 (SK-MEL-5): > 100 µM (inactive) | GI50 (TK-10): > 100 µM (inactive) | GI50 (SNB-75): > 100 µM (inactive) | GI50 (UO-31): > 100 µM (inactive)
